Assay results reported in PMC5400565, “Real-time near-infrared fluorescence imaging using cRGD-ZW800-1 for intraoperative visualization of multiple cancer types” (Oncotarget, 2017).

Tests used:
KV channel = experiment: Off-target screening (Eurofins Cerep), KV channel; type: binding
Description: (§1) Off-target interactions are binding of tracers to other components on the cell surface than the actual target site. These non-specific interactions are often of low affinity and easily missed, but can have significant effects. We outsourced the screening for in vitro for off-target interactions of cRGD-ZW800-1 to Eurofins Cerep SA, Le bois l’Evêque, France. They assessed the percentage of inhibition of a reference compound in 44 selected targets, including G protein-coupled receptors (GPCRs), transporters, ion channels, nuclear receptors, kinases and other non-kinase enzymes. These targets were recommended by four major pharmaceutical companies. The complete list is included in Supplementary Table 1 of the Supplementary Data. Each assay was performed twice using 10 μM cRGD-ZW800-1 and a reference compound. Inhibition higher than 50% was considered to represent a significant effect of cRGD-ZW800-1. Results showing between 20% and 50% were considered weak to moderate effects, while lower than 20% was not considered significant and mostly attributable to variability of the signal around the control level.

MCF-7 breast tumors = experiment: NIR fluorescence imaging, MCF-7 breast tumors; type: in vivo, mice; conditions: 10 nmol, Pearl
Procedure: To induce subcutaneous tumors, colorectal cancer cells (HT-29) were injected at 4 sites on the back (500,000 cells per spot). Subsequently, these colorectal tumor cells were transplanted on the colon of other mice, as described by Tseng et al.. Approximately 500,000 pancreatic tumor cells (BxPC-3) were injected into the pancreas, as previously described by Kim et al.. Approximately 40,000 oral tumor cells (OSC-19) were injected in the tongue, as previously described by van Driel et al.. Approximately 500,000 breast tumor cells (MCF-7) were injected in both sides of the mammary fat pad to induce breast cancer tumors.
All animals were imaged using a Pearl® imager (LI-COR, Lincoln, NE) and an original FLARE® prototype. Animals with HT-29 tumors were imaged at 4 and 24 h post injection; animals with BxPC-3 and OSC-19 tumors at 4 h only. Animals with MCF-7 tumors were imaged at 0.5, 1, 2, 4, 6, 8, 24 and 48 h post injection. The specific and control images were normalized and regions of interest (ROIs) were selected using associated software. TBRs were calculated by dividing the tumor signal by the background signal. Based on our experience a TBR ≥ 2 is sufficient to discriminate between tumor and surrounding tissue.
(§2) Mice bearing orthotopic OSC-19 tumors (n = 2) were administrated with 10 nmol cRGD-ZW800-1 and imaged at 4 h. Mice bearing orthotopic MCF-7 tumors (n = 2) were injected with 10 nmol cRGD-ZW800-1 and imaged at 0.5, 1, 2, 4, 6, 8, 24, and 48 h post injection. One mouse with 2 MCF-7 tumors was administered with 10 nmol cRGD-ZW800-1 and imaged at 4 h post injection while its skin was partially removed. In vivo TBRs were calculated by dividing the mean fluorescence signals of tumors by the mean of surrounding tissue. Ex vivo organ-to-tumor ratios were calculated by dividing the fluorescence intensity of the organ by that of the tumor.

Serotonin channels 5-HT3 = target: T1, Serotonin channels 5-HT3 (Homo sapiens, UniProt P46098); experiment: Off-target screening (Eurofins Cerep), 5-HT3; type: binding
T1 construct: Eurofins Cerep SA (contract screen)
T1 sequence (P46098 24-478): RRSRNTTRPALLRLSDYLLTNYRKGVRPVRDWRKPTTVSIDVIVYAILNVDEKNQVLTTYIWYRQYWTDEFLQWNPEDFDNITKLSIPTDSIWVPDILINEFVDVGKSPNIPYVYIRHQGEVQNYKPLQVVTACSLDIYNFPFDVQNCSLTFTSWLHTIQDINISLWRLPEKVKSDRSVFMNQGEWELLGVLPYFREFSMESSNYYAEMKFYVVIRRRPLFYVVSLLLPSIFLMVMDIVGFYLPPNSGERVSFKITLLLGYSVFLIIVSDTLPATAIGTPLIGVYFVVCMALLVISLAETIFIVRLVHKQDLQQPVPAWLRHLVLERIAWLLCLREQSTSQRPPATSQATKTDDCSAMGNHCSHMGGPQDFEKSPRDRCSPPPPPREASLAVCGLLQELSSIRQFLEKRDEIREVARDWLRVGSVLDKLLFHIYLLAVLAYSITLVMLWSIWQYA

[1] = target: AR (steroid nuclear receptor) (Homo sapiens, UniProt P10275); experiment: Off-target screening (Eurofins Cerep), AR; type: binding
[2] = target: Ca2+ channel (L, dihydropyridine site) (Rattus norvegicus, UniProt P22002); experiment: Off-target screening (Eurofins Cerep), Ca2+ channel; type: binding
Sequence of Ca2+ channel (L, dihydropyridine site) (P22002 whole entry): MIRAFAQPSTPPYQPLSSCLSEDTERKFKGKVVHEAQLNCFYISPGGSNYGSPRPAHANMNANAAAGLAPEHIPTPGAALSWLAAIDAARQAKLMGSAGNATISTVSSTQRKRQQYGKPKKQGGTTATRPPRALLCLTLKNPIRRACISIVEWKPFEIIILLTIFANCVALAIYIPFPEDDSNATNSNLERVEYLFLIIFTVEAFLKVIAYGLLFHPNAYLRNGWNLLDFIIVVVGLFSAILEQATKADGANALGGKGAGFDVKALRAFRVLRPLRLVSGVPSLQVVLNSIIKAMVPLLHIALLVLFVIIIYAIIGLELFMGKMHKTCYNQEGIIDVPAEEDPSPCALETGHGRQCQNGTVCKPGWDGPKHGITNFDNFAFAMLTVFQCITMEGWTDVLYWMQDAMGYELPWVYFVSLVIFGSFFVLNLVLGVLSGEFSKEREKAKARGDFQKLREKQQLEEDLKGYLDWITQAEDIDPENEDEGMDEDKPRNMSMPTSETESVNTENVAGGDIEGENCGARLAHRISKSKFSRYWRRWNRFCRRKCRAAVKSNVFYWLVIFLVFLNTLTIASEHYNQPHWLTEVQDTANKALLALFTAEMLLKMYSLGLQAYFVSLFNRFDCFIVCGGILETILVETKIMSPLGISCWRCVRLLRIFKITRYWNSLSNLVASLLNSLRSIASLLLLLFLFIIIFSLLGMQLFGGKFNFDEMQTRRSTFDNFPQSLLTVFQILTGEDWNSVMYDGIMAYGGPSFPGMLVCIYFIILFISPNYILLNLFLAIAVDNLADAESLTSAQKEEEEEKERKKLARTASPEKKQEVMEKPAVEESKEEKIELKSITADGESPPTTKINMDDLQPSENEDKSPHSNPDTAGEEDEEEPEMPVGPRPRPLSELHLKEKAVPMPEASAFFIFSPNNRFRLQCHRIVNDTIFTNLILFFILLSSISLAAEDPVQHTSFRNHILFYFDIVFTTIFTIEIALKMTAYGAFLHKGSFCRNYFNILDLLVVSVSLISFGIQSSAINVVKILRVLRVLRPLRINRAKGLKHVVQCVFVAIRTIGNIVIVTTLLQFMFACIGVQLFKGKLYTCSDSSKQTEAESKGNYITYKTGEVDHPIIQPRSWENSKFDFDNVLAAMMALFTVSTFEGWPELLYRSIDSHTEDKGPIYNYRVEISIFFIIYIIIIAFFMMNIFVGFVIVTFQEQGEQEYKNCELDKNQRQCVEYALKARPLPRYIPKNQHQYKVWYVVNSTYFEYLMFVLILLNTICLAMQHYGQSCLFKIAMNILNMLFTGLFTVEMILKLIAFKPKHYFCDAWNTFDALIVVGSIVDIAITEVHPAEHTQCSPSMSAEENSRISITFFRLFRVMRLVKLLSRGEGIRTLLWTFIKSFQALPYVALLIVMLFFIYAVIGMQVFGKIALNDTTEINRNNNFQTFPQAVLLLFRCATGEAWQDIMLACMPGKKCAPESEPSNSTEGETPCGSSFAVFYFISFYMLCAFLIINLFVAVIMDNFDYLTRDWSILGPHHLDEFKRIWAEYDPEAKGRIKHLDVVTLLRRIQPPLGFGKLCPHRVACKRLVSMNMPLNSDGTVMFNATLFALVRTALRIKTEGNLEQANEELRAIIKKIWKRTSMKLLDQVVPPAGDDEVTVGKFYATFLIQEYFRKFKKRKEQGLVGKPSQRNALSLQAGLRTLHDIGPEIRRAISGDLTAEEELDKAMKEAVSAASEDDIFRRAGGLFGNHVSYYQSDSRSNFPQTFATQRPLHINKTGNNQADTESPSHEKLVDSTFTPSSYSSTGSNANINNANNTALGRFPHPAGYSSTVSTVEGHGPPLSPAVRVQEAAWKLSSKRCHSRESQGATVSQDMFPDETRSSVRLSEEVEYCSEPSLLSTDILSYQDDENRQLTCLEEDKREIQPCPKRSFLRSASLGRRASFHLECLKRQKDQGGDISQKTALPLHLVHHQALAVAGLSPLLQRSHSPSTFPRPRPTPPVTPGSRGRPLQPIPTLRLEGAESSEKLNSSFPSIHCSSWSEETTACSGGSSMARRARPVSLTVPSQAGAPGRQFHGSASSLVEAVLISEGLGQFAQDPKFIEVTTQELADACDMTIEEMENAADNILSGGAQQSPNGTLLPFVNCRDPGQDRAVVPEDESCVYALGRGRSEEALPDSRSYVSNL
Description: as §1

HT-29 cells = experiment: Binding assay of cRGD-ZW800-1 on cells; type: cell-based, human
Cannabinoid CB2 = target: T2, Cannabinoid CB2 (Homo sapiens, UniProt P34972); experiment: Off-target screening (Eurofins Cerep), CB2; type: binding
T2 construct: Eurofins Cerep SA (contract screening)
T2 sequence (P34972 whole entry): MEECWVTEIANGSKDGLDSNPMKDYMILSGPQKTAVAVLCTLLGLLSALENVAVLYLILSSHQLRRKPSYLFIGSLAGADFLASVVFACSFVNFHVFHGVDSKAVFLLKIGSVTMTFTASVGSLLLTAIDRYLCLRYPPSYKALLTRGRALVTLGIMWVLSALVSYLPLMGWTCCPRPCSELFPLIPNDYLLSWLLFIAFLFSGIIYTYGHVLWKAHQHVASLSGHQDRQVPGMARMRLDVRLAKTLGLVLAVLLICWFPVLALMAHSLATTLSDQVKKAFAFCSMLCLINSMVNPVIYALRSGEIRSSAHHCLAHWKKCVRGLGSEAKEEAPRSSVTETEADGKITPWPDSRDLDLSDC

Dopamine transporter = target: T3, Dopamine transporter (Homo sapiens, UniProt Q01959); experiment: Off-target screening (Eurofins Cerep), dopamine transporter; type: binding
T3 construct: Eurofins Cerep SA (contract screening)
T3 sequence (Q01959 whole entry): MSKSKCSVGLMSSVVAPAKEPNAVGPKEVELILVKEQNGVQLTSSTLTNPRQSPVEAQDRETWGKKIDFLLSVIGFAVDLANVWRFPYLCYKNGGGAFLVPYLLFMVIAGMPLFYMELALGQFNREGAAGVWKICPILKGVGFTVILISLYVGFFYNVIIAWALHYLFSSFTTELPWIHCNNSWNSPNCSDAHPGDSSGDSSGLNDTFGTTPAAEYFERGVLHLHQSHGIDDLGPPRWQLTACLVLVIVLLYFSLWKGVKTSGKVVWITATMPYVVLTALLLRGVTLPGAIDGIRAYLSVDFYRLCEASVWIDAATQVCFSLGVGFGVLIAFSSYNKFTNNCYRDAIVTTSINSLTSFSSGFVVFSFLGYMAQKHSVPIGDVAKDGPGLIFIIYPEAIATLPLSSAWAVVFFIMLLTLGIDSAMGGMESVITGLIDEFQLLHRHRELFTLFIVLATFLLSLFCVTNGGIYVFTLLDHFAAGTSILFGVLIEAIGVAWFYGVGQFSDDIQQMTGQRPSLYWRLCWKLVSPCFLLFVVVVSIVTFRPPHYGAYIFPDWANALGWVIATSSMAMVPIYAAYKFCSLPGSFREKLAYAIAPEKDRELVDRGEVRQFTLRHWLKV

[3] = target: T4, lymphocyte-specific protein tyrosine kinase (LCK) (Homo sapiens, UniProt P06239); experiment: Off-target screening (Eurofins Cerep), Lck kinase; type: biochemical
T4 construct: Eurofins Cerep SA (contract screen)
T4 sequence (P06239 whole entry): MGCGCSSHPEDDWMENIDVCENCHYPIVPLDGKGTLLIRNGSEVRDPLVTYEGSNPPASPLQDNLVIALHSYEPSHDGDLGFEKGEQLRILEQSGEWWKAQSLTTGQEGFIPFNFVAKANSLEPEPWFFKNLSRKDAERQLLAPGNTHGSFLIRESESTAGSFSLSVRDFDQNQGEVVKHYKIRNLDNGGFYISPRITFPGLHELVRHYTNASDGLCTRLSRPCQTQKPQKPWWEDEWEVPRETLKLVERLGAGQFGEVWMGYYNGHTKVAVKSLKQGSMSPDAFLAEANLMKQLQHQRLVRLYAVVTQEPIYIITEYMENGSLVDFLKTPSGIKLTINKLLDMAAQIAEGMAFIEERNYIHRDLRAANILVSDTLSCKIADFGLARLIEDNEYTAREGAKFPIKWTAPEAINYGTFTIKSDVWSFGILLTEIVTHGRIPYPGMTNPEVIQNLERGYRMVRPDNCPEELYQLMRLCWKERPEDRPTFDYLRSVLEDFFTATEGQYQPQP

BxPC-3 tumors and organs = experiment: Ex vivo biodistribution, BxPC-3 model; type: in vivo, mice; conditions: 4 h post injection
Procedure: After imaging, mice were sacrificed and OSC-19 and BxPC-3 tumors were quickly frozen in isopentane at -80°C for histological evaluation. Tissues were sectioned at 10 μm and fluorescence imaging was performed using fluorescence microscopy (Nikon eclipse e800, Nikon, Amsterdam, The Netherlands). All histologic sections were stained with standard hematoxylin-eosin stain (HE). Organs of mice with colorectal and pancreatic cancer were collected and imaged using the Pearl® to evaluate biodistribution.
Mice were administered with 0.25 (HT-29 model only), 1.0, 10, or 30 nmol cRGD-ZW800-1 to evaluate tumor signals, biodistribution, and to calculate TBRs (n = 3 per dose group). At 4 h (BxPC-3 model) and 24 h (HT-29 model) after injection, mice were fully dissected and fluorescence intensity of their organs was measured.
as §2

[4] = target: T5, 5-hydroxytryptamine (serotonin) receptor 2B (5-HT2B) (Homo sapiens, UniProt P41595); experiment: Off-target screening (Eurofins Cerep), 5-HT2B; type: binding
T5 construct: Eurofins Cerep SA (contract screening)
T5 sequence (P41595 whole entry): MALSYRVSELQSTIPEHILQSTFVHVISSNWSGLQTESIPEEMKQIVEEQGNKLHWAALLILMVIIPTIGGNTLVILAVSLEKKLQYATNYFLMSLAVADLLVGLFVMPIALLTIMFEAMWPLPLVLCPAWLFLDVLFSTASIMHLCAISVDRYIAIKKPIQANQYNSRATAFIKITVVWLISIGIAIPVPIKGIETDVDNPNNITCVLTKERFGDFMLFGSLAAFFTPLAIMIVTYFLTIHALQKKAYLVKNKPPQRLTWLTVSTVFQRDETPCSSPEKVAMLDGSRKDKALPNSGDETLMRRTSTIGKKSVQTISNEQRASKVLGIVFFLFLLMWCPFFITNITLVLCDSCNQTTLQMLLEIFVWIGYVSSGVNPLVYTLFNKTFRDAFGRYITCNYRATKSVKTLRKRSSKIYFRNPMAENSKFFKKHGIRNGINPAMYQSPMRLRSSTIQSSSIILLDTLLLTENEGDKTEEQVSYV
Description: as §1

Serotonin 5-HT2A = target: T6, Serotonin 5-HT2A (Homo sapiens, UniProt P28223); experiment: Off-target screening (Eurofins Cerep), 5-HT2A; type: binding
T6 construct: Eurofins Cerep SA (contract screening)

Endothelin ETA = target: T7, Endothelin ETA (Homo sapiens, UniProt P25101); experiment: Off-target screening (Eurofins Cerep), ETA; type: binding
T7 construct: Eurofins Cerep SA (contract screening)
T7 sequence (P25101 21-427): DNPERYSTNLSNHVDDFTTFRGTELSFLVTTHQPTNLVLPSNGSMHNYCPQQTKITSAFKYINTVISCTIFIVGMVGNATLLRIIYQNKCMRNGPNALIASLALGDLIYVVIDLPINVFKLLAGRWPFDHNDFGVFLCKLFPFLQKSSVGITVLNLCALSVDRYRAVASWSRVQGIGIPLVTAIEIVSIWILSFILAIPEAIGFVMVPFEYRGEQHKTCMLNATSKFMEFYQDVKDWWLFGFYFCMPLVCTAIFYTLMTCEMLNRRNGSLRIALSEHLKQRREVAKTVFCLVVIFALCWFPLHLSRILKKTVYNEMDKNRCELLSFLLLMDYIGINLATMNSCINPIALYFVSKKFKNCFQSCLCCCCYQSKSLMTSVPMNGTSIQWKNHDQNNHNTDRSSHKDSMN

[5] = 10 μM cRGD-ZW800-1, format H, Ag, performed twice, read-out: % Inhibition of Control Specific Binding
[6] = 10 μM, mean of 2, read-out: % of Control Specific Binding Mean

## CC1(C)C(/C=C/C2=C(Oc3ccc(CCC(=O)NCCCC[C@@H]4NC(=O)[C@@H](Cc5ccc(O)cc5)NC(=O)[C@H](CC(=O)O)NC(=O)CNC(=O)[C@H](CCCNC(=N)N)NC4=O)cc3)C(=C/C=C3/N(CCC[N+](C)(C)C)c4ccc(S(=O)(=O)O)cc4C3(C)C)/CCC2)=[N+](CCC[N+](C)(C)C)c2ccc(S(=O)(=O)O)cc21 [cRGD-ZW800-1]
KV channel; 10 μM cRGD-ZW800-1, format An, performed twice
  % Inhibition of Control Specific Binding: 2%
KV channel; 10 μM, mean of 2
  % of Control Specific Binding Mean: 98.0%
MCF-7 breast tumors
  decrease of fluorescence intensity of tumors at 4 h compared to 0.5 h post injection: 61% ± 8%
  decrease of fluorescence intensity of tumors at 24 h compared to 0.5 h post injection: 77% ± 4%
MCF-7 breast tumors; single mouse with 2 tumors
  TBR at 4 h post injection, with skin: 1.5 ± 0.1
MCF-7 breast tumors; single mouse with 2 tumors, p = 0.02
  TBR at 4 h post injection, skin removed: 3.0 ± 0.3
Serotonin channels 5-HT3; read-out: % Inhibition of Control Specific Binding
  inhibition at 10 µM: 12%
Serotonin channels 5-HT3; read-out: % of Control Specific Binding Mean
  remaining activity at 10 µM: 87.7%
[1]; [5]
  inhibition at 10 µM: 9%
[1]; [6]
  remaining activity at 10 µM: 91.4%
[2]; Ca2+ channel (L, dihydropyridine site), 10 μM cRGD-ZW800-1, format An, performed twice, read-out: % Inhibition of Control Specific Binding
  inhibition at 10 µM: 15%
[2]; Ca2+ channel, 10 μM, mean of 2, read-out: % of Control Specific Binding Mean
  remaining activity at 10 µM: 84.6%
HT-29 cells; 0, 125, 250, 500, 1000 nM, 1 h, Odyssey NIR scanner 800-nm channel, triplicate
  fluorescence intensity with increasing concentrations: almost linear increase
HT-29 cells; incubated at 4°C, which prevents internalization, p < 0.0001
  fluorescence signals at 4°C compared to 37°C: Significantly lower signals
Cannabinoid CB2; [5]
  inhibition at 10 µM: -11%
Cannabinoid CB2; [6]
  remaining activity at 10 µM: 111%
Dopamine transporter; 10 μM cRGD-ZW800-1, format H, An, performed twice, read-out: % Inhibition of Control Specific Binding
  inhibition at 10 µM: 5%
Dopamine transporter; [6]
  remaining activity at 10 µM: 95%
[3]; 10 μM cRGD-ZW800-1, format H, performed twice, read-out: % Inhibition of Control Specific Binding
  inhibition at 10 µM: 28%
[3]; [6]
  remaining activity at 10 µM: 72.3%
BxPC-3 tumors and organs; all doses, ex vivo, Pearl
  tumor fluorescence relative to skin, intestines, lungs, muscle, gallbladder, brain, and blood: at least twice as fluorescent
BxPC-3 tumors and organs; ex vivo
  fluorescence signals in kidneys relative to tumors: equal to or higher than tumors
BxPC-3 tumors and organs; ex vivo organ-to-tumor ratio
  fluorescence ratios of large intestines and liver compared with tumors: around half
[4]; [5]
  inhibition at 10 µM: 29%
[4]; [6]
  remaining activity at 10 µM: 70.9%
Serotonin 5-HT2A; [5]
  inhibition at 10 µM: -9%
Serotonin 5-HT2A; [6]
  remaining activity at 10 µM: 109%
Endothelin ETA; [5]
  inhibition at 10 µM: 1%
Endothelin ETA; [6]
  remaining activity at 10 µM: 98.6%
